Our source for the cytotoxicity values is ChEMBL document CHEMBL3507680, “University of Dundee, Gates Library screen for HepG2 cell viability”.

This data set is described as follows: Human HepG2 cell viability assay in 384 well format. It counts as toxicity, cell-based. The arrangement: dose 125 nL, time 70.5 hour; concentration not given beside the values. The following applies: HepG2 cells, read-out: Inhibition.
Turning to `Cc1ccc(-c2cc(CNC(=O)N3CCC(CO)CC3)on2)cc1`, the cytotoxicity at 70.5 h was determined as 5.23%. The same measure for `CN(C)c1ccccc1C(=O)N1CCCC(c2ccc(C(=O)O)cc2)C1` (stereo unspecified): -17.2%; for `CC(=O)N1CCCN(Cc2csc(-c3ncccn3)n2)CC1`: -7.01%. As to `C1CC(CO[C@@H]2CC[C@H]3[C@H]2OCCN3CC2CC2)CCO1`, the cytotoxicity at 70.5 h was -82.4%. For `CCOc1ccc(NCc2cnc(N3CCN(C)CC3)nc2)cn1` the value was -1.43%; for `CC(=O)Nc1cccc(CNC(=O)N(C)Cc2ccccc2)c1`, -8.01%.

Turning to `CCc1cc(CN(C)C(=O)c2cnn[nH]2)on1`, the cytotoxicity at 70.5 h is -9.04%. For `CNC(=O)CN(C)Cc1ccc(F)cc1Cl` the value was -6.72%. For `Cc1nc(NC(=O)C(C)N(C)Cc2cccc(C#N)c2)sc1C` (stereo unspecified), the cytotoxicity at 70.5 h came out at 15.8%. As for `COCCN1C(=O)CC[C@@H]2[C@H]1CCN2Cc1ccc(C)s1`, the cytotoxicity at 70.5 h was -11.5%. For `COCCC1(CO)CCCN(Cc2ccncc2)C1` (stereo unspecified), the cytotoxicity at 70.5 h is -3.98%.

`Cn1cc(N2C[C@@H]3CN(Cc4ccoc4)C[C@@H]3C2=O)cn1`: the cytotoxicity at 70.5 h was -2.46%. Regarding `CC(Oc1ccc2c(c1)OCO2)C(=O)Nc1ccon1` (stereo unspecified), the cytotoxicity at 70.5 h is -6.17%.

Turning to `CN(C)C(=O)CS(=O)(=O)Cc1ccn(-c2cccc(F)c2)n1`, the cytotoxicity at 70.5 h is -3.31%. `Cc1ccnn1C(C)C(=O)Nc1cc(-c2ccncc2)[nH]n1` (stereo unspecified): the cytotoxicity at 70.5 h was -6.01%. For `CCCN(Cc1ccccc1)Cn1nc(C)c2c(C)onc2c1=O` the value was 0.0673%. In the case of `CCc1nc(CN2CCCN(CC(=O)Nc3cccnc3)CC2)no1`, the cytotoxicity at 70.5 h was 8.11%. As for `O=C(Nc1ccc(CCN2CCOCC2)cc1)C1CC1`, the cytotoxicity at 70.5 h is -4.46%. Turning to `CCS(=O)(=O)c1ccc2oc([C@H]3CCN(CC4CCCCC4)C3)nc2c1`, the cytotoxicity at 70.5 h worked out at 13.1%. `Cn1cc(CN2CCCC(CCc3ccc(F)c(F)c3)C2)cn1` (stereo unspecified): the cytotoxicity at 70.5 h is -2.93%. In the case of `O=C(c1cscn1)N1CCc2[nH]nc(Nc3ccccc3)c2C1`, the cytotoxicity at 70.5 h is -6.3%.

Consider `O=C(CCOCC(F)(F)F)NS(=O)(=O)c1cccnc1`, for which the cytotoxicity at 70.5 h is -3.03%. As to `CSc1nccc(N2CCCC(c3nccn3C(C)C)C2)n1` (stereo unspecified), the cytotoxicity at 70.5 h stood at 17.1%.

In the case of `c1cncc(CNc2ncnc3c2CCN(Cc2ccsc2)CC3)c1`, the cytotoxicity at 70.5 h is -5.06%. On to `O=c1cc(-c2cccnc2)nc(-c2ccc(CN3CC[C@H](O)C3)cc2)[nH]1`, for which the cytotoxicity at 70.5 h was determined as 9.56%. The same measure for `CNc1nc(CNC(=O)Nc2ccc(OC(C)C)cc2F)cs1`: -5.89%; for `Cc1cnc(CNC2CCc3nc(C(C)C)nn3C2)cn1` (stereo unspecified): -2.01%; for `CCCn1cnnc1CN(C)C(=O)CCC(=O)Nc1cc(C)ccc1F`: -6.48%. Regarding `CC(=O)N1CCC(C(=O)NCCN2CCC(C)CC2)CC1`, the cytotoxicity at 70.5 h is -2.37%. As for `Cc1ccc(CNS(=O)(=O)CC2=NC(=O)n3cccc3C2=O)cc1`, the cytotoxicity at 70.5 h was -10.8%. Regarding `CNC(=O)c1cn2cc(-c3ccccc3Cl)n(CC=C(C)C)c(=O)c2n1`, the cytotoxicity at 70.5 h is 35.1%. Consider `CC(C)OCCN1CCN(c2ccc(Cl)cn2)CC1`, for which the cytotoxicity at 70.5 h was -6.76%.

`Cc1n[nH]c2nc(-c3ccccc3O)cc(C(=O)O)c12`: the cytotoxicity at 70.5 h came to 13.5%. Turning to `O=C(c1sccc1Br)N(Cc1cccnc1)C1CC1`, the cytotoxicity at 70.5 h was -13.1%. Turning to `CNC(=O)C(C)CN(C)C(=O)Nc1ccc(Cl)cc1-n1cccc1` (stereo unspecified), the cytotoxicity at 70.5 h was determined as 4.05%.

As to `O=S(=O)(CCN1CCCCC1Cn1cccn1)c1ccccc1` (stereo unspecified), the cytotoxicity at 70.5 h was -28.3%.

On to `COc1cc(N2C[C@H](OCc3cccnc3)[C@H]3OCCC[C@H]32)ncn1`, for which the cytotoxicity at 70.5 h was 3.36%. The same measure for `CN(C)C[C@H]1OC[C@@H]2CCN(C(=O)c3ccc[nH]3)C[C@@H]21`: -4.7%. For `O=C(CN1CCCS1(=O)=O)Nc1ccc(OC2CCCC2)cc1` the value was -0.244%; for `COc1ncc(CN2CCCC2c2[nH]ncc2C(=O)N(C)C)cn1` (stereo unspecified), 23.2%; for `O=C(CCN1CCCCO1)NC1CCCN(CC2CCCCC2)C1` (stereo unspecified), -8.52%. For the compound `O=c1[nH]cc(Nc2ccccc2)c(=O)[nH]1`, the cytotoxicity at 70.5 h was determined as 35%. The same measure for `CC(C)c1nc(C2CCCN(C(=O)CCCn3cncn3)C2)no1` (stereo unspecified): -16%; for `Cn1cc(C(=O)CC2CCCN2C(=O)c2c[nH]c3ccccc23)cn1` (stereo unspecified): -13.9%. For `CCn1cc(C(=O)Nc2ccc(C)cc2C(=O)OC)cn1` the value was 16%. Turning to `Cc1cccc(C(=O)N2CCn3cc(CN4CCCCC4)nc3C2)n1`, the cytotoxicity at 70.5 h was -10.3%.

Take `Cn1cnnc1CNC(=O)C1CCCN(Cc2ccccc2)C1` (stereo unspecified): the cytotoxicity at 70.5 h turned out to be 0.292%.

For the compound `CCOC1CCN(C(=O)CN(C)c2cnccn2)CC1`, the cytotoxicity at 70.5 h is -4.29%. Regarding `Cc1cccnc1N1CC2(CCN(Cc3cnn(C)c3)C2)C1`, the cytotoxicity at 70.5 h is -10.7%.

Take `Cc1csc(NC(=O)C2(C)CCCO2)n1` (stereo unspecified): the cytotoxicity at 70.5 h was -7.86%. The same measure for `CC(C)n1nc2c(cc1=O)CN(Cc1nnc(C3CC3)o1)CC2`: -3.62%; for `CN(CC(=O)NCC(C)(C)c1ccc2c(c1)OCO2)c1cnccn1`: -12.3%. For `Cc1nn(-c2ncccn2)c2c1C(c1cnn(C)c1)SCC(=O)N2` (stereo unspecified) the value was -24.2%; for `CCNC(=O)CN(CC)C(=O)c1cc(-c2cccc(Cl)c2)no1`, -0.184%; for `Cc1ccc(N2CCCN(C(=O)CCC3CCCO3)CC2)nn1` (stereo unspecified), 4.12%.

In the case of `CC(C)Nc1nc(O)cc(C2CC(=O)N(C3CCCCC3)C2)n1` (stereo unspecified), the cytotoxicity at 70.5 h is -3.62%. With `CCn1ccnc1CNCc1ccc(C)cc1OC(C)(C)C`, the cytotoxicity at 70.5 h is -11%. Regarding `CC(C)NC(=O)N1CCCC(Cn2cc(-c3ccc(F)cc3)nn2)C1` (stereo unspecified), the cytotoxicity at 70.5 h was found to be 23.4%. As for `CC(C)C(=O)N1CCC2(CCN2CC2CC2)C1` (stereo unspecified), the cytotoxicity at 70.5 h is -4.62%. Take `Cc1ccccc1CN1CCOC(c2nccc(CN(C)C)n2)C1` (stereo unspecified): the cytotoxicity at 70.5 h was -8.08%. With `CCc1c(C(=O)NC2CCS(=O)(=O)C2)cnn1-c1ccc(F)cc1` (stereo unspecified), the cytotoxicity at 70.5 h was -22.6%. On to `CC(=O)N(Cc1ncc(C)o1)C1CCN(Cc2sc(C)nc2C)C1` (stereo unspecified), for which the cytotoxicity at 70.5 h is -3.28%.

As for `CC(=O)N1CCN(C(=O)c2c(Cl)c3ccccc3n2C)CC1`, the cytotoxicity at 70.5 h was -7.65%.

Consider `COCCN1CCC(c2cncc(-c3ccccc3C)n2)CC1`, for which the cytotoxicity at 70.5 h is -4.28%. With `Cc1nc(C(=O)N(Cc2c(C)nn(C)c2C)C(C)C)cs1`, the cytotoxicity at 70.5 h is -0.883%. For the compound `O=c1ccc(-n2ccnc2)nn1CCNS(=O)(=O)c1ccc(F)c(Cl)c1`, the cytotoxicity at 70.5 h was -1.07%. For `Cc1ccccc1CNC(=O)CNc1ccc(OC2CCOC2)cc1` (stereo unspecified) the value was -13.6%; for `O=C(Nc1ccc(I)cc1C(=O)NCCN1CCOCC1)c1cccs1`, 11.1%; for `Cn1nc(Br)c2c(NCCSCCCO)ncnc21`, -10.5%. As for `CC(NC(=O)N1CCC[C@H]1CO)c1noc(-c2ccccc2)n1` (stereo partly specified), the cytotoxicity at 70.5 h is -3.8%. As for `CN1C(=O)[C@H]2CC[C@@H]1CN(C(=O)c1csc(Cc3ccccc3)n1)C2`, the cytotoxicity at 70.5 h was -11.4%.
